Several values for one entry are separate records, joined by “and”; a condition that tells them apart may be missing. Equal entries are not always repeated. Toxic doses and inconclusive results are not listed.
Test system: P388 leukemia ip, CD2F1 mice, survival T/C
Assay: NCI In Vivo Anticancer Drug Screen. Data for tumor model P388 Leukemia (intraperitoneal) in CD2F1 (CDF1) mice
Details: endpoint: median survival time, higher = longer survival
Method in brief: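 Mice carrying the transplanted tumor received test compound or vehicle. Survival was recorded in each group, and the value is the treated-group measurement divided by that of the vehicle-treated control group.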

COc1cccc(Sc2ccc([N+](=O)[O-])c3no[n+]([O-])c23)c1
T/C (dose: 0.93 mg/kg/injection, schedule: Q01DX005 (ip), vehicle: saline with Tween-80): 100 % of control
T/C (dose: 0.93 mg/kg/injection, schedule: Q01DX009 (ip), vehicle: saline with Tween-80): 157 % of control
T/C (dose: 1.56 mg/kg/injection, schedule: Q01DX005 (ip), vehicle: saline with Tween-80): 100 % of control and 97 % of control
T/C (dose: 1.87 mg/kg/injection, schedule: Q01DX005 (ip), vehicle: saline with Tween-80): 99 % of control
T/C (dose: 1.87 mg/kg/injection, schedule: Q01DX009 (ip), vehicle: saline with Tween-80): 163 % of control
T/C (dose: 3.12 mg/kg/injection, schedule: Q01DX005 (ip), vehicle: saline with Tween-80): 100 % of control and 102 % of control
T/C (dose: 3.75 mg/kg/injection, schedule: Q01DX005 (ip), vehicle: saline with Tween-80): 99 % of control
T/C (dose: 3.75 mg/kg/injection, schedule: Q01DX009 (ip), vehicle: saline with Tween-80): 99 % of control
T/C (dose: 6.25 mg/kg/injection, schedule: Q01DX005 (ip), vehicle: saline with Tween-80): 100 % of control and 106 % of control
T/C (dose: 7.5 mg/kg/injection, schedule: Q01DX005 (ip), vehicle: saline with Tween-80): 102 % of control
T/C (dose: 12.5 mg/kg/injection, schedule: Q01DX005 (ip), vehicle: saline with Tween-80): 102 % of control and 106 % of control
T/C (dose: 15.0 mg/kg/injection, schedule: Q01DX005 (ip), vehicle: saline with Tween-80): 106 % of control
T/C (dose: 15.0 mg/kg/injection, schedule: Q01DX009 (ip), vehicle: Klucel (hydroxypropylcellulose) (HPC)): 184 % of control
T/C (dose: 15.0 mg/kg/injection, schedule: Q01DX009 (ip), vehicle: saline with Tween-80): 107 % of control
T/C (dose: 25.0 mg/kg/injection, schedule: Q01DX005 (ip), vehicle: saline with Tween-80): 108 % of control and 111 % of control
T/C (dose: 30.0 mg/kg/injection, schedule: Q01DX005 (ip), vehicle: saline with Tween-80): 109 % of control
T/C (dose: 30.0 mg/kg/injection, schedule: Q01DX009 (ip), vehicle: Klucel (hydroxypropylcellulose) (HPC)): 166 % of control
T/C (dose: 60.0 mg/kg/injection, schedule: Q01DX005 (ip), vehicle: saline with Tween-80): 110 % of control
T/C (dose: 60.0 mg/kg/injection, schedule: Q01DX009 (ip), vehicle: Klucel (hydroxypropylcellulose) (HPC)): 88 % of control

O=C(O)C1C2C(=O)N(CO)C(=O)C2C(C(=O)O)C2C3C(=O)N(CO)C(=O)C3C12 (centres undefined)
T/C (dose: 12.5 mg/kg/injection, schedule: Q01DX009 (ip), vehicle: water): 108 % of control
T/C (dose: 25.0 mg/kg/injection, schedule: Q01DX009 (ip), vehicle: water): 99 % of control
T/C (dose: 50.0 mg/kg/injection, schedule: Q01DX009 (ip), vehicle: water): 102 % of control and 105 % of control and 92 % of control
T/C (dose: 100.0 mg/kg/injection, schedule: Q01DX009 (ip), vehicle: water): 107 % of control and 117 % of control and 120 % of control
T/C (dose: 200.0 mg/kg/injection, schedule: Q01DX009 (ip), vehicle: water): 114 % of control and 120 % of control
